Experimental data from patent US4963553A, “4-[(substituted) alkylcarbonyl]-4,5-dihydro- and -4,5,6,7-tetrahydro-7-[(substituted)phenyl]pyrazolo[1,5-a]pyrimidines” (American Cyanamid Co., priority 1988, dated 1990).
Structures can show the parent of a compound that is named as a salt.

Legend:
rats = test: Non-conditioned passive avoidance conflict procedure in rats (anxiolytic); format: in vivo, rat (Wistar strain, male); conditions: 25 mg/kg, oral, 60 minutes
Method: A test used to assess antianxiety effects is the non-conditioned passive avoidance procedure described by J. R. Vogel, B. Beer and D. E. Clody, "A Simple and Reliable Conflict Procedure for Testing Antianxiety Agents", Psychopharmacologia, 21, 1-7 (1971). A conflict situation is induced in rats by a modification of this method.
Groups of 8 naive, Wistar strain male rats (Royalhart Farms, New Hampton, N.J.), weighing 200-240 g each, were deprived of water for 48 hours. The test compounds were administered in single or graded, oral doses, suspended in 2% starch with 5% polyethylene glycol in distilled water and one drop of polysorbate 80. Control animals received the vehicle alone. At 60 minutes each rat was placed in an individual clear plastic chamber. Tap water was available ad libitum from a nipple located in a black box off the main chamber. A 0.7 milliampere AC shocking current was established between the stainless steel grid floor and the tap. After 20 licks of non-shocked drinking, a 2 second shocking current was administered to the rat. This ratio of 20 licks of non-shocked drinking followed by a 2 second shock was continued for a total of 3 minutes. The number of shocks taken by each rat during the 3 minute interval was recorded and compared to a control group. […]

[1] = tested on: mice (tetrabenazine-induced depression); test: Tetrabenazine-induced depression (antidepressant); format: in vivo, mouse; parameters: key: Active: A compound is considered active if 3 or more of 10 mice are protected against the tetrabenazine-induced effects; conditions: 25 mg/kg, oral, 10 mice
Method: The compounds of the invention are useful as antidepressant agents in warm-blooded animals as verified in the following tests. First, the antidepressant properties of these compounds were tested by measuring their ability to counteract depression induced in animals by the administration of tetrabenazine methanesulfonate. Each test compound was administered orally to 10 mice at a dose of 25 mg/kg of body weight. Thirty minutes later, tetrabenazine methane sulfonate was administered intraperitoneally to each mouse at a dose of 39 mg/kg of body weight, which dose is known to depress markedly the exploratory behavior of normal mice. Thirty minutes later the mice were tested for their exploratory behavior as described by E. Greenblatt and A. C. Osterberg, Toxicology and Applied Pharmacology, 7. 566-578 (1965). A compound is considered active if 3 or more of 10 mice are protected against the tetrabenazine-induced effects.

[2] = target: T1, human platelet membranes (3H-imipramine receptor) (Homo sapiens, UniProt P31645); test: 3H-imipramine binding to human platelet membranes
T1 construct: Fresh human platelet concentrates (less than 48 hours old) were obtained from the New York Blood Center; tissue New York Blood Center; host or cells: human blood platelets, membranes
Method: The activity of the compounds of the invention as antidepressant agents was further verified# in the following test which measures the ability of a test compound to inhibit 3H-imipramine binding to human platelet membranes.
Platelet membranes were obtained using the procedure described by Wennogle, L. et al., Pharmac. Biochem. Behav., 15. 975 (1981). Fresh human platelet concentrates (less than 48 hours old) were obtained from the New York Blood Center. These concentrates were prepared in a citrate-dextrose anticoagulant using standard techniques. Platelets were washed twice by centrifugation (2500×G, 10 minutes) in 50 volumes of an antiprotease buffer containing 0.005M Tris potassium chloride, 0.12M sodium chloride, 0.05M Tris pH 7.5, 0.025 Units/ml aprotinin, 0.05 μg/m pepstatin, 2×10^-5 bacitracin, 3 mM ethylenediaminetetraacetic acid and 1.0 mM ethyleneglycol-bis (β-aminoethylether)N,N'-tetra-acetic acid. […] All procedures were conducted at 0° C. using plastic laboratory-ware throughout the platelet membrane preparation. Platelets were resuspended in 20 volumes of buffer and sonicated 3 times using 10 second bursts of a Branson sonifier (cell disrupter 350) at setting 6 (standard 3/4 inch horn), keeping the sample on ice throughout the procedure. Platelet membranes were then washed twice at 18,000×G for 20 minutes with 50 volumes of the antiprotease buffer and resuspended to 3.0 mg. protein/ml using the Bradford protein analysis with bovine gamma globulin as standard. Membranes were used immediately or stored frozen in liquid nitrogen.
The displacement of 3H-imipramine binding to human platelet membranes was performed essentially as described by Paul, S. M., et al., Life Sci., 953 (1980) with the following modifications. Membranes (0.3 mg protein) were suspended in antiprotease buffer with both […] 3H-imipramine (New England Nuclear) and displacing drug or buffer in a total volume of 250 #1 in glass test tubes. Samples were incubated for 90 minutes at 0° C., then diluted to 5 ml in 0.12M sodium chloride, 0.005M potassium chloride, 0.05M Tris pH 7.5 (wash buffer) and immediately filtered through GF/B Whatman Filters and washed twice with 5 ml of wash buffer. Filters were counted in a liquid scintillation counter after addition of Beckman HP Scintillant.
Non-specific binding of 3H-imipramine was defined as that fraction (generally 35%) of radioactivity that was not displaced by 10 μM desmethylimipramine. Specific binding was determined by subtraction of this non-specific level from values for total 3H-imipramine binding which were measured by incubating 3H-imipramine in the absence of displacing drug. Compounds were tested in duplicate test tubes at a concentration of 10 μM. Compounds which inhibited binding by more than 50% were considered to be active.

[3] = tested on: mice (anoxic induced amnesia); test: Passive Avoidance Anoxic Induced Amnesia Test; format: in vivo, mouse (Swiss-Webster, middle-aged); conditions: intraperitoneal, vs saline control
Excerpt: A useful in vivo test associated with decreased neural function in mammals is the Passive Avoidance Anoxic Induced Amnesia Test. This test is used to determine the attenuation of anoxic induced amnesia in mice treated with drug, as compared to saline treated control animals with no drug. A shock-motivated, single trial, step-through passive avoidance procedure is used. Groups of 25 Swiss-Webster, middle-aged mice (9 months of age) are placed singly in the front chamber of a 2-chamber box and are allowed to voluntarily cross into the rear chamber. As soon as the mouse enters the rear chamber, a door automatically traps the animal and a mild electric shock (0.4 mA for 4 seconds) is delivered to its feet. Following the foot shock, the mice are initially placed in an anoxic environment (0% oxygen) for 12 seconds, which quickly induces unconsciousness. […] All testing is performed 24 hours later, and in all cases the mice appear fully recovered from the previous anoxic/hypoxic treatment. […] Control animals are injected intraperitoneally only with saline at 0.01 ml/g of body weight. The latent period prior to entering the rear chamber is recorded for both training and testing sessions. The greater the memory of being shocked, the greater the reluctance to enter into the rear chamber and the higher will be the latent period prior to re-entry. […]

[4] = tested on: Brain-Specific Receptors of Rats (3H-benzodiazepine binding); test: Inhibition of the binding of 3H-benzodiazepine to brain-specific receptors of rats; parameters: species or system rat (Wistar strain, whole cortex); conditions: rat cortex P2 fraction, 3H-diazepam 1.5 nM or 3H-flunitrazepam 1.0 nM
Excerpt: Another test utilized for the determination of anxiolytic activity is the measurement of the ability of a test compound to inhibit the binding of tritiated benzodiazepines to brain-specific receptors of mammals. A modification of the method described by R. F. Squires, et al., Nature, 266 (21), 732 (Apr., 1977) and H. Mohler, et al., Science, 198, 849 (1977) was employed. […] The test compounds were solubilized in dimethylformamide, acetic acid, ethanol or hydrochloric acid. […] (1) resuspended in twice the original volume in hypotonic 50 mM Tris.HCl (pH 7.4), or (2) resuspended in one-half the original volume in hypotonic 10 mM Tris.HCl (pH 7.4) and frozen (-20° C.) until time. of use. Frozen P2 preparations were thawed and resuspended in four times the original homogenizing volume at time of assay. […] Incubation for 30 minutes proceeded in ice and was terminated by filtration, under vacuum, through glass fiber filters. The filters were washed twice with 5 ml of ice-cold 50 mM Tris.HCl (pH 7.4) and placed in scintillation vials. After drying at 50°-60° C. for 30 minutes, 10 ml of diluent was added and the radioactivity determined in a scintillation counter. Inhibition of binding was calculated by the difference between total binding and binding in the presence of test compound, divided by the total binding, X 100.

[5] = tested on: mice (hypoxic environment); test: Hypoxic survival test; format: in vivo, mouse (Royal Hart); conditions: intraperitoneal, 10% oxygen, 5 minutes
How it was run: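 Groups of 20 Royal Hart mice (6 weeks old) dosed i.p. with compound in saline at 1–200 mg/kg, 30 minutes before exposure to 10% oxygen/90% carbon dioxide; survival scored after 5 minutes. Saline and physostigmine (0.125 mg/kg i.p.) groups run in parallel.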

[6] = tested on: Spontaneously Hypertensive Rats; test: Hypotensive activity: mean arterial blood pressure in spontaneously hypertensive rats; format: in vivo, rat (Okamoto strain, male); conditions: SHR, gavage, 100 mg/kg or less, two doses 24 h apart, measured at 28 hours; average MABP of rats used 160±1.5 mm; 100 mg/kg
How it was run: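 Male 16-week-old Okamoto SHR (baseline MAP 160±1.5 mm Hg) dosed by gavage at ≤100 mg/kg in 2% starch with 25 ml/kg 0.9% NaCl load, redosed at 24 h without saline; mean arterial pressure measured at 28 h after first dose.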

T1 sequence (P31645 whole entry): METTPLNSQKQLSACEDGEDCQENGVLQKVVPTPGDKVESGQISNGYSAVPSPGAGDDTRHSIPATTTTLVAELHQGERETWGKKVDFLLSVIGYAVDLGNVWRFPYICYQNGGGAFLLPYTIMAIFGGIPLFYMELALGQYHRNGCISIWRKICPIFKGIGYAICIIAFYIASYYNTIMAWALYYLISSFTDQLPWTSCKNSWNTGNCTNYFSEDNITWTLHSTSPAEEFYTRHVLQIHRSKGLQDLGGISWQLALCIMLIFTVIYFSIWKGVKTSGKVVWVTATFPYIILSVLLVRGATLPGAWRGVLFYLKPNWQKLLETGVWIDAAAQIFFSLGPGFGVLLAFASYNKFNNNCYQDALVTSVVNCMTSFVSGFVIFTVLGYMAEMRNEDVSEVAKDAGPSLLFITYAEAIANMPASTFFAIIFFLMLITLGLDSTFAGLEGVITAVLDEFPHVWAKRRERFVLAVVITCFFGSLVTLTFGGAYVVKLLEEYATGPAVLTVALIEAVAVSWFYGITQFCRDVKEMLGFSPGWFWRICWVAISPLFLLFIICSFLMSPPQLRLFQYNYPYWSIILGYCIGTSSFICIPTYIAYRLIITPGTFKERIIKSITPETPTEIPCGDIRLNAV

In the case of `N#Cc1cnn2c1N(C(=O)CN1CCN(CCC3CCCCC3)CC1)CC=C2c1cccc(C(F)(F)F)c1` [Example 41, 4-[[4-(2-Cyclohexylethyl)-1-piperazinyl]acetyl]-4,5-dihydro-7-[3-(trifluoromethyl)phenyl]pyrazolo[1,5-a]pyrimidine-3-carbonitrile], the “Result (No. of shocks per 3 min.)” value (rats) is reported as 18.0 shocks per 3 min.
`COc1cccc(CN2CCN(CC(=O)N3CC=C(c4cccc(C(F)(F)F)c4)n4ncc(C#N)c43)CC2)c1` [Example 20, 4,5-Dihydro-4-[[4-[(3-methoxyphenyl)methyl]-1-piperazinyl]acetyl]-7-[3-(trifluoromethyl)phenyl]pyrazolo[1,5-a]pyrimidine-3-carbonitrile] was tested, and the “Result (protection against tetrabenazine-induced depression)” value [1] was “Active” and the inhibition at 10 µM [2] was 78%.
For `N#Cc1cnn2c1N(C(=O)CN1CCN(Cc3ccc4c(c3)OCO4)CC1)CC=C2c1cccc(C(F)(F)F)c1` [Example 23, 4-[[4-(1,3-Benzodioxol-5-ylmethyl)-1-piperazinyl]acetyl]-4,5-dihydro-7-[3-(trifluoromethyl)phenyl]pyrazolo[1,5-a]pyrimidine-3-carbonitrile], the “Result (protection against tetrabenazine-induced depression)” value [1] was “Active” and the inhibition at 10 µM [2] was 81%.
With `COc1cccc(CN2CCN(CC(=O)N3CC=C(c4cccc(C(F)(F)F)c4)n4ncc(C#N)c43)CC2)c1.Cl.Cl` [Example 79, 4,5-Dihydro-4-[[4-[(3-methoxyphenyl)methyl]-1-piperazinyl]acetyl]-7-[3-(trifluoromethyl)phenyl]pyrazolo[1,5-a]pyrimidine-3-carbonitrile, dihydrochloride] the “Result (protection against tetrabenazine-induced depression)” value [1] was “Active”.
With `CN1CCN(CC(=O)N2CC=C(c3cccc(C(F)(F)F)c3)n3ncc(C#N)c32)CC1` [Example 77, 4,5-Dihydro-4-[(4-methyl-1-piperazinyl)acetyl]-7-[3-(trifluoromethyl)phenyl]pyrazolo[1,5-a]-pyrimidine-3-carbonitrile. dihydrochloride] the “Result (No. of shocks per 3 min.)” value (rats) was 17.4 shocks per 3 min.
With `N#Cc1cnn2c1N(C(=O)CN1CCN(Cc3ccccc3)CC1)CC=C2c1cccc(C(F)(F)F)c1` [Example 17, 4,5-Dihydro-4-[[4-(phenylmethyl)-1-piperazinyl]acetyl]-7-[3-(trifluoromethyl)phenyl]pyrazolo[1,5-a]pyrimidine-3-carbonitrile] the “Result (protection against tetrabenazine-induced depression)” value [1] was “Active”, the “% Improvement” value ([3]; 100 mg/kg) was 65% and the “% Improvement” value ([3]; 200 mg/kg) was 93%. For the same compound, the “% Inhibition (3H-benzodiazepine binding)” value [4] was 17%, the “% Survivors” value ([5]; 100 mg/kg) was 48% and the responders at 10 mg/kg ([5]; Mus musculus, ip, 5 min, 10 mg/kg, read-out: % Survivors) was 40%. For the same compound, the “MABP/mmHg (mean arterial blood pressure)” value [6] was 120 mmHg.
